Ki and inhibition data for 4 compounds are collected here from ChEMBL document CHEMBL1641373, “Trishomocubane as a scaffold for the development of selective dopamine transporter (DAT) ligands” (Bioorg Med Chem Lett, 2011).

A short description of assay [1]: Displacement of [3H]-ditolyl guanidine from sigma 2 receptor in rat PC12 cells. The class given is cell-based. Particulars: pc-12.
Assay [2] concerns the target Sodium-dependent dopamine transporter (Homo sapiens, UniProt Q01959). In words: Displacement of [3H]WIN-35428 form human DAT expressed in HEK cell membranes. Set-up: species or system HEK293.
For assay [3], the target named is T1, Alpha-1B adrenergic receptor (Homo sapiens) (UniProt P35368).
T1 sequence (whole entry): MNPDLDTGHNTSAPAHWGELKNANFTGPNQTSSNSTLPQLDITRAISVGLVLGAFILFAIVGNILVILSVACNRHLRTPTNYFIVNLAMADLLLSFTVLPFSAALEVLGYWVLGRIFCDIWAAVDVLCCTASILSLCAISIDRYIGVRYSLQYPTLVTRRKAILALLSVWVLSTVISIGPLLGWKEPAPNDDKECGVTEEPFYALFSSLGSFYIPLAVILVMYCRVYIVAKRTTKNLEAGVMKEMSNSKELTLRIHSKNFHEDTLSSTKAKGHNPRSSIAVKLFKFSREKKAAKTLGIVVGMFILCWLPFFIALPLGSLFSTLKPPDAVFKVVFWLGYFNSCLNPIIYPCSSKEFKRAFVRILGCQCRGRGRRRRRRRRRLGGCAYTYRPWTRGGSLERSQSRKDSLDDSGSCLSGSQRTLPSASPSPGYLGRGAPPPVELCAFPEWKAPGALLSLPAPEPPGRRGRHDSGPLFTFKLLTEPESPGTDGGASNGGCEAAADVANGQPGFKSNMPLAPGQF
Briefly: Inhibition of Alpha-1B adrenergic receptor at 10 uM.

Assay [4] concerns the target T2, Alpha-1D adrenergic receptor (Homo sapiens) (UniProt P25100).
T2 sequence (whole entry): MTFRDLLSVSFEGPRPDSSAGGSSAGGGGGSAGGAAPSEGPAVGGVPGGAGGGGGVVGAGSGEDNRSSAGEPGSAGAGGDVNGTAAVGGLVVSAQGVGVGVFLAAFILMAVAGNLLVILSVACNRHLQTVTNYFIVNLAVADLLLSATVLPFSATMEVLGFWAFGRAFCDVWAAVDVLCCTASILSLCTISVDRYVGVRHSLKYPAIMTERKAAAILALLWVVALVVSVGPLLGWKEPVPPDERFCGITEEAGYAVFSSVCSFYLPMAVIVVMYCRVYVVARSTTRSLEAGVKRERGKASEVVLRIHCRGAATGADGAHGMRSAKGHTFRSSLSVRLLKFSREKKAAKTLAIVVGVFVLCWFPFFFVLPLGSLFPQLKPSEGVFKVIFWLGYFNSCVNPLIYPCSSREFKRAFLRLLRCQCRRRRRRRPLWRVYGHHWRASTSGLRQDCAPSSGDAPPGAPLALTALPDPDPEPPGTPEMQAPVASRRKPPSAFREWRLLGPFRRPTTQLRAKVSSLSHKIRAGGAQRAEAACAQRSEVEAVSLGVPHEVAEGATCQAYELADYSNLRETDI
In words: Inhibition of Alpha-1D adrenergic receptor at 10 uM.

For assay [5], the target named is Beta-2 adrenergic receptor (Homo sapiens) (UniProt P07550). Briefly: Inhibition of beta2 adrenergic receptor at 10 uM.
Assay [6] has as its target Beta-3 adrenergic receptor (Homo sapiens) (UniProt P13945). In words: Inhibition of beta3 adrenergic receptor at 10 uM.
Assay [7] deals with D(2) dopamine receptor (Homo sapiens) (UniProt P14416). In words: Inhibition of dopamine D2 receptor at 10 uM.
The target of assay [8] is Histamine H3 receptor (Homo sapiens) (UniProt Q9Y5N1). Briefly: Inhibition of H3 receptor at 10 uM.
Assay [9] has as its target T3, 5-hydroxytryptamine receptor 3A (Homo sapiens) (UniProt P46098).
T3 sequence (whole entry): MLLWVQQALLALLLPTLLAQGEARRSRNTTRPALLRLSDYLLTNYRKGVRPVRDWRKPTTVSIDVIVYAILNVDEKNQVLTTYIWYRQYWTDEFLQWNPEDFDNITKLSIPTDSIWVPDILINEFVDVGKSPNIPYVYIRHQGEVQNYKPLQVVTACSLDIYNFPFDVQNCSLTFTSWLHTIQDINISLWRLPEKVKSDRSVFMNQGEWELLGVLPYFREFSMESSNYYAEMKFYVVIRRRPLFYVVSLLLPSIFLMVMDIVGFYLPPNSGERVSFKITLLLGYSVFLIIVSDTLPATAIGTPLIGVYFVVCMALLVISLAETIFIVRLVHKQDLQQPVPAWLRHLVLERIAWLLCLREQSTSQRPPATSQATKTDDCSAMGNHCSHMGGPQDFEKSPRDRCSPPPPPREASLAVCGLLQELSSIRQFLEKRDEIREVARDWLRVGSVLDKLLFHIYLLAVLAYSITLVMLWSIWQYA
Briefly: Inhibition of 5HT3 receptor at 10 uM.

Assay [10] deals with Delta-type opioid receptor (Homo sapiens) (UniProt P41143). In words: Inhibition of delta opioid receptor at 10 uM.
Assay [11] addresses Mu-type opioid receptor (Homo sapiens) (UniProt P35372). Briefly: Inhibition of mu opioid receptor at 10 uM.
In assay [12] the target is 5-hydroxytryptamine receptor 6 (Homo sapiens, UniProt P50406). In words: Inhibition of 5HT6 receptor at 10 uM.
The target in assay [13] is T4, Muscarinic acetylcholine receptor M5 (Homo sapiens) (UniProt P08912).
T4 sequence (whole entry): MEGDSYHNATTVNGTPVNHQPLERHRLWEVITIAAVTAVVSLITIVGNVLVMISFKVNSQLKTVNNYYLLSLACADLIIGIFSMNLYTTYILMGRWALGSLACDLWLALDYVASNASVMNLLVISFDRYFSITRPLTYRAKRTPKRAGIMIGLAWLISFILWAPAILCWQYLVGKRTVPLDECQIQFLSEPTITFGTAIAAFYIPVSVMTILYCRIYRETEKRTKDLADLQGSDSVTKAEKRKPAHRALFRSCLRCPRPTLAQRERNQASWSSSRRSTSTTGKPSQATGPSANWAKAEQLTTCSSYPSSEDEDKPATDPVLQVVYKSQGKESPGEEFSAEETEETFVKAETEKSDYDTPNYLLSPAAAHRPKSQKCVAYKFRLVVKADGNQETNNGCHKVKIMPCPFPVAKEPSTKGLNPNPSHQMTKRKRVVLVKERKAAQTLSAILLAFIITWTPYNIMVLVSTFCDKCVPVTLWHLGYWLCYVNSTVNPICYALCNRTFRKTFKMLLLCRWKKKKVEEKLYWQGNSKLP
In words: Inhibition of muscarinic M5 receptor at 10 uM.

Histamine H3 receptor (Homo sapiens), sequence (Q9Y5N1 whole entry): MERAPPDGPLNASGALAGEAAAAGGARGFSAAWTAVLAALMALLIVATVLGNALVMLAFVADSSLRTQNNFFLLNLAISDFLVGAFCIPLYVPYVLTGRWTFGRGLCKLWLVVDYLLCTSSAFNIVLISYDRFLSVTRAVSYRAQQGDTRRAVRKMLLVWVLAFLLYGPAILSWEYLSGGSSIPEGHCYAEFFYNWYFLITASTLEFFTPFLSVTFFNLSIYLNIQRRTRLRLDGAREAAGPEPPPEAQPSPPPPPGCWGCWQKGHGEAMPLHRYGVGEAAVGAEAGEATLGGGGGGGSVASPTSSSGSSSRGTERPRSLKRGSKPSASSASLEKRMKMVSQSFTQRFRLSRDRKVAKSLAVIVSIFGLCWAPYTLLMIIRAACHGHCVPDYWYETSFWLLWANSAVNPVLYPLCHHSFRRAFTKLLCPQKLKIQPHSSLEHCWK
Mu-type opioid receptor (Homo sapiens), sequence (P35372 whole entry): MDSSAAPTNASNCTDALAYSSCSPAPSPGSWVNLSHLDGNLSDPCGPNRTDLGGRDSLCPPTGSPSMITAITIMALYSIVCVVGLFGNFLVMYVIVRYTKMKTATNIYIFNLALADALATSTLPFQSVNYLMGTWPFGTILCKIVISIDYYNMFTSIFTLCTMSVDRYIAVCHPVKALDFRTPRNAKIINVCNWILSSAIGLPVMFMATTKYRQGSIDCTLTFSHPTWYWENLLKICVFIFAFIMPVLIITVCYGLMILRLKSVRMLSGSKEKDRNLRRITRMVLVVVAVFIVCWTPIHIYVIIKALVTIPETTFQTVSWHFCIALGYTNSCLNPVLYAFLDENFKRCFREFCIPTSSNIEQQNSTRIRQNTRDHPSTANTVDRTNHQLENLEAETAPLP
Beta-3 adrenergic receptor (Homo sapiens), sequence (P13945 whole entry, looked up): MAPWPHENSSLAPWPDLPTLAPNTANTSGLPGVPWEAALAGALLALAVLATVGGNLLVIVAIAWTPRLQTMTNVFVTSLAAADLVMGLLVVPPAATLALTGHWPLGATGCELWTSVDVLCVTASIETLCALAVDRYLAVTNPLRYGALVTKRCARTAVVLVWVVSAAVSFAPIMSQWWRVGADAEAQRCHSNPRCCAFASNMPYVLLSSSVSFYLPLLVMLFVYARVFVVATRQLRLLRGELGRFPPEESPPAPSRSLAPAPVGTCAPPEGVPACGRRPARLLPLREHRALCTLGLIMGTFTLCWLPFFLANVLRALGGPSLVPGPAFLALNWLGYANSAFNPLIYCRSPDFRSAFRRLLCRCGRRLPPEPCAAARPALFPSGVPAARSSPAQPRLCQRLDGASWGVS
Sodium-dependent dopamine transporter, sequence (Q01959 whole entry): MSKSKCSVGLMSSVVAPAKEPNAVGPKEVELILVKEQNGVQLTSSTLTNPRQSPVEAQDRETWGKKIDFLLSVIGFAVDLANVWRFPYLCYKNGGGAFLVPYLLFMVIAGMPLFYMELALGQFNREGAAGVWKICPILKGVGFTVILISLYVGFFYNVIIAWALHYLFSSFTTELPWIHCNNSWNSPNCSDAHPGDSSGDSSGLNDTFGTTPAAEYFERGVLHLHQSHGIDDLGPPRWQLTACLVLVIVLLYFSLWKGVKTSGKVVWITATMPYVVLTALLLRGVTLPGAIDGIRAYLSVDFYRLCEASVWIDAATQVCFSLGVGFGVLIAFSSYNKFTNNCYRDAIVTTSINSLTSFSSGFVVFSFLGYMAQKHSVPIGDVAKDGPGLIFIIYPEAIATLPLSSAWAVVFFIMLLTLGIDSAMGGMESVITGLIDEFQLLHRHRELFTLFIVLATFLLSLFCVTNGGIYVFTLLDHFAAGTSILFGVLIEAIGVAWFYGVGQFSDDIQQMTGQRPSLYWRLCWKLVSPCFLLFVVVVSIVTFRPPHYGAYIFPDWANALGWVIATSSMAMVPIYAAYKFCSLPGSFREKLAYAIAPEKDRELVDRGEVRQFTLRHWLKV
Beta-2 adrenergic receptor (Homo sapiens), sequence (P07550 whole entry, looked up): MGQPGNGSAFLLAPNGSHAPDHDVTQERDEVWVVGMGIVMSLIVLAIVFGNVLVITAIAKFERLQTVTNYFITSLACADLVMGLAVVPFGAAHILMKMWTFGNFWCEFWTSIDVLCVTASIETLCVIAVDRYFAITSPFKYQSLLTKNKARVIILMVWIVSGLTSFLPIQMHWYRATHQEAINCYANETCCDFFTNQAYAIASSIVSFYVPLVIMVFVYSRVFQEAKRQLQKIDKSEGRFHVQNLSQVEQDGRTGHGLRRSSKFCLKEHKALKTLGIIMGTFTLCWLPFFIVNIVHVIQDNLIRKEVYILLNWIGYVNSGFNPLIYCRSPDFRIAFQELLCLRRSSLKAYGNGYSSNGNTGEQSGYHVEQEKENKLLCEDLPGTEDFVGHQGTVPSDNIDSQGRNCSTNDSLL
Delta-type opioid receptor (Homo sapiens), sequence (P41143 whole entry): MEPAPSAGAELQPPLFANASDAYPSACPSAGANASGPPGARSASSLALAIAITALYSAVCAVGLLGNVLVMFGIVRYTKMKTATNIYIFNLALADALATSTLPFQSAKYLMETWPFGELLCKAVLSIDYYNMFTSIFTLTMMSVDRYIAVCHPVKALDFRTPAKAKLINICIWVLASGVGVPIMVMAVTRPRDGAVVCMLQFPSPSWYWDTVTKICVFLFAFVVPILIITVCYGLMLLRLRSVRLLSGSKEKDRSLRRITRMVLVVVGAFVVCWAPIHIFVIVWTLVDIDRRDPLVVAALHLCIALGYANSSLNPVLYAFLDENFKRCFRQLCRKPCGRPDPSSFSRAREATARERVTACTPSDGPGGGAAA
D(2) dopamine receptor (Homo sapiens), sequence (P14416 whole entry): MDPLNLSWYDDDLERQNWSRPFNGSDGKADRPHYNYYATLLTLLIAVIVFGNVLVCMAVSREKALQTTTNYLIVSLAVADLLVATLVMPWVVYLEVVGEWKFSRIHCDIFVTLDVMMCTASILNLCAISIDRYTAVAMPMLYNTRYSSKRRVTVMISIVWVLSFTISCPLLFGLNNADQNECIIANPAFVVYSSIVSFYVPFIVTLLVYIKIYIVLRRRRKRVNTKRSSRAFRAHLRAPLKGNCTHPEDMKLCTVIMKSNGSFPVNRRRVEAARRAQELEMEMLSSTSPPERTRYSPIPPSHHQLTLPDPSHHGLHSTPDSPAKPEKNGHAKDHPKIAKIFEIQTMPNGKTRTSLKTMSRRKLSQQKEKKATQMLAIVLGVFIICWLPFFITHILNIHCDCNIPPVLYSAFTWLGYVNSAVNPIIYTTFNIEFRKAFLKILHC
5-hydroxytryptamine receptor 6, sequence (P50406 whole entry): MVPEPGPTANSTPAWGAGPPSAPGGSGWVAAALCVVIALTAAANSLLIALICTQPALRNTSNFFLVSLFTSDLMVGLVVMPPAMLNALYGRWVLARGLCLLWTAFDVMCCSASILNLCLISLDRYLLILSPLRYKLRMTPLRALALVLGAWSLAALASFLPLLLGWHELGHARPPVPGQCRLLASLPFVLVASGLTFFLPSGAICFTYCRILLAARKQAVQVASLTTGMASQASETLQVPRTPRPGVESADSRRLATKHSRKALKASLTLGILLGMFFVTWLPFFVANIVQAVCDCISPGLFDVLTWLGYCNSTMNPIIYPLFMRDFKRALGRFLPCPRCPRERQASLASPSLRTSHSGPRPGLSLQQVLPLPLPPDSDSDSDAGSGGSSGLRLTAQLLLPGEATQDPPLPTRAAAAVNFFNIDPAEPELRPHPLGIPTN

Take `Fc1cccc(CCN[C@H]2C3C4CC5C6C4CC3C6C52)c1` (stereo not given in full): the values for the Ki in assay [1] and in [2] were 6 nM and 1680 nM, respectively. Besides, the inhibition in [3], in [4], in assay [5], in assay [6], in [7] and in assay [8] was under 50% each time. Besides, the inhibition in assay [9], in assay [10] and in assay [11] was under 50% in each case.
On to `CN(Cc1cccc(F)c1)[C@H]1C2C3CC4C5C3CC2C5C41` (stereo not given in full), for which the Ki in assay [1] was determined as 117 nM; in assay [2] it was 1.2 nM. Also, the inhibition in assay [3], in [4], in [5], in assay [6], in assay [7] and in [8] was under 50% throughout. Besides, the inhibition in assay [9], in [12], in assay [13], in [10] and in [11] was under 50% each time.
As to `Fc1cccc(CN[C@H]2C3C4CC5C6C4CC3C6C52)c1` (stereo not given in full), the Ki is 19 nM in assay [1] and 3440 nM in assay [2]. Further, the inhibition in assay [3], in assay [4], in [5], in assay [6], in [7] and in assay [8] was under 50% each time. In addition, the inhibition in assay [9], in [12], in assay [13], in [10] and in assay [11] was under 50% throughout.
For `CN(CCc1cccc(F)c1)[C@H]1C2C3CC4C5C3CC2C5C41` (stereo not given in full), the Ki in assay [1] is 39 nM; in assay [2], 101 nM. Besides, the inhibition in assay [3], in [4], in assay [5], in [6], in assay [7] and in assay [8] was under 50% throughout. In addition, the inhibition in assay [9], in [12], in assay [13], in [10] and in assay [11] was under 50% throughout.
